In data set [1] the test system is Respiratory syncytial virus. The data set is described as follows: Antiviral activity against Respiratory syncytial virus A2 infected in human Hep2 cells after 3 days by ELISA. To be noted: A2, HEp-2, 72 h. The format is functional, organism-based. (An ELISA detects its analyte on a solid surface through an enzyme-linked reagent.)
Data set [2] deals with Respiratory syncytial virus. The data set is described as follows: Antiviral activity against Respiratory syncytial virus A2 infected in hamster BHK21 cells after 2 days by luciferase reporter gene assay. The data set is classed as functional, organism-based. The following applies: human respiratory syncytial virus, A2, BHK-21, 48 h. For orientation: Reporter assays use an easily measured gene product as a stand-in for the process of interest.

Data set [3] in a line: Cytotoxicity against human Hep2 cells. The format is cell-based, HEp-2.
The test system of data set [4] is Respiratory syncytial virus. The data set is described as follows: Antiviral activity against Respiratory syncytial virus B-Washington infected in human Hep2 cells after 3 days by ELISA. The data set is classed as functional, organism-based. The following applies: HEp-2, 72 h.
A short description of data set [5]: Aqueous solubility of the compound. The following applies: buffer. The format is physicochemical.
Data set [6] can be described thus: Cytotoxicity against hamster BHK21 cells. The format is cell-based, Mesocricetus auratus, BHK-21.
The nature of data set [7]: Absorption half life in rat lungs at 10 ug/kg administered intratracheally as solution. The format is ADME, tissue-based. The following applies: lung, inhaled or intranasal, 0.01 mg/kg, read-out: t1/2abs.

Values after ≈ are worked out from the molar mass of the structure shown.

In general, EC50 refers to the concentration that produces a half-maximal response. Low values mean greater potency, high ones weaker potency. The term CC50 denotes the concentration at which the toxic effect on the cells reaches its halfway point. A word on the solubility: it is the dissolved amount per volume that the medium holds. On to `O=C(NC1CC1)c1cc2c(s1)-c1ccccc1N(C(=O)c1ccc(NC(=O)c3cccnc3N3CCC4(CCOCC4)CC3)cc1)CC2`, for which the EC50 stood at 30 nM in data set [1], 0.04 µM in data set [2] and 2.2 µM in data set [4]. In addition, in data set [3], the CC50 was above 50 µM. The compound further yielded a solubility in data set [5] below 1 µM.

As for `O=C(NC1CC1)c1cc2c(s1)-c1ccccc1N(C(=O)c1ccc(NC(=O)c3cccnc3N3CC4(CCOCC4)C3)cc1)CC2`, the EC50 in data set [1] is 10 nM; in data set [2], below 0.007 µM; in data set [4], 0.5 µM. The same compound showed a CC50 in data set [3] above 50 µM. This compound showed a solubility in data set [5] below 1 µM.

With `O=C(NC1CC1)c1cc2c(s1)-c1ccccc1N(C(=O)c1ccc(NC(=O)c3ccncc3N3CCC4(CC3)COC4)cc1)CC2`, the figures for the EC50 in data set [1], in data set [2] and in data set [4] were below 210 nM, 0.16 µM and 5.1 µM, respectively. For the same compound, the CC50 in data set [3] worked out at 4.8 µM. For the same compound, in data set [5], the solubility was below 1 µM.

Turning to `O=C(NC1CC1)c1cc2c(s1)-c1ccccc1N(C(=O)c1ccc(NC(=O)c3cnccc3N3CCC4(CC3)COC4)cc1)CC2`, the EC50 in data set [1] amounted to 680 nM; in data set [2] it was 0.57 µM; in data set [4], 14 µM. The compound further gave a CC50 in data set [3] of 34 µM. The solubility in data set [5] worked out at 9 µM (≈ 5.7 µg/mL).

Turning to `O=C(NC1CC1)c1cc2c(s1)-c1ccccc1N(C(=O)c1ccc(NC(=O)c3ncccc3N3CCC4(CC3)COC4)cc1)CC2`, the EC50 in data set [1] came out at 470 nM; in data set [2] it was 0.35 µM; in data set [4], 49 µM. The compound also came in with a CC50 in data set [3] of 43 µM. The solubility in data set [5] is below 1 µM.

Consider `O=C(NC1CC1)c1cc2c(s1)-c1ccccc1N(C(=O)c1ccc(NC(=O)c3ccccc3N3CCC4(CC3)COC4)cc1)CC2`, for which the EC50 in data set [1] was below 210 nM; in data set [2], 0.19 µM; in data set [4], above 50 µM. In data set [3], this compound returned a CC50 above 50 µM. The solubility in data set [5] was below 1 µM.

Turning to `COc1ccc(C(=O)Nc2ccc(C(=O)N3CCc4cc(C(=O)NC5CC5)sc4-c4ccccc43)cc2)c(N2CCC3(CC2)COC3)n1`, the EC50 in data set [1] is below 210 nM; in data set [2] it was 0.02 µM; in data set [4], 1.8 µM. Besides, the CC50 in data set [3] is above 50 µM. The compound further gave a solubility in data set [5] below 1 µM.

Take `O=C(NC1CC1)c1cc2c(s1)-c1ccccc1N(C(=O)c1ccc(NC(=O)c3cccnc3N3CCCC3)nc1)CC2`: the EC50 in data set [1] was above 50000 nM; in data set [2] it was above 50 µM; in data set [4], above 50 µM. In data set [6], this compound registered a CC50 above 50 µM. For the same compound, the solubility in data set [5] is 3 µM (≈ 1.74 µg/mL).

`O=C(NC1CC1)c1cc2c(s1)-c1ccccc1N(C(=O)[C@H]1CC[C@H](NC(=O)c3cccnc3N3CCCC3)CC1)CC2` displayed an EC50 in data set [2] above 50 µM. The compound further had a CC50 in data set [6] above 50 µM. Moreover, the concentration in solution in data set [5] (solubility) came to 11 µM (≈ 6.42 µg/mL).

In data set [2], `O=C(NC1CC1)c1cc2c(s1)-c1ccccc1N(C(=O)N1CCC(NC(=O)c3cccnc3N3CCCC3)CC1)CC2` had an EC50 of 14 µM. The cytotoxic concentration (CC50) in data set [6] was above 50 µM. Further, in data set [5], the concentration in solution (solubility) came to 26 µM (≈ 15.2 µg/mL).

In the case of `O=C(NC1CC1)c1cc2c(s1)-c1ccccc1N(C(=O)[C@H]1C[C@@H](NC(=O)c3cccnc3N3CCCC3)C1)CC2`, the EC50 in data set [2] was above 50 µM. The CC50 in data set [6] is above 50 µM. The solubility in data set [5] was found to be 2 µM (≈ 1.11 µg/mL).

`O=C(NC1CC1)c1cc2c(s1)-c1ccccc1N(C(=O)[C@H]1C[C@H](NC(=O)c3cccnc3N3CCCC3)C1)CC2` gave an EC50 in data set [2] of 16 µM. The CC50 in data set [6] was above 50 µM. Further, the solubility in data set [5] is 3 µM (≈ 1.67 µg/mL).

Consider `O=C(NC1CC1)c1cc2c(s1)-c1cnccc1N(C(=O)c1ccc(NC(=O)c3cccnc3N3CCCC3)cc1)CC2`, for which the EC50 in data set [1] is 1100 nM; in data set [2], 2.2 µM; in data set [4], above 50 µM. This compound also showed a CC50 in data set [6] above 50 µM. The concentration in solution in data set [5] (solubility) was 1 µM (≈ 0.579 µg/mL).

On to `O=C(NC1CC1)c1cc2c(s1)-c1cccnc1N(C(=O)c1ccc(NC(=O)c3cccnc3N3CCCC3)cc1)CC2`, for which the EC50 in data set [1] is 7800 nM; in data set [2], 8.6 µM; in data set [4] it was above 50 µM. Also, the CC50 in data set [6] was above 50 µM. For the same compound, the concentration in solution in data set [5] (solubility) came to 10 µM (≈ 5.79 µg/mL).

In the case of `O=C(NC1CC1)c1cc2n(n1)CCN(C(=O)c1ccc(NC(=O)c3cccnc3N3CCCC3)cc1)c1ccccc1-2`, the EC50 in data set [1] stood at 20000 nM; in data set [2] it was 9 µM; in data set [4], 50 µM. The same compound showed a half-maximal cytotoxic concentration (CC50) in data set [6] above 50 µM. This compound also had a solubility in data set [5] of 32 µM (≈ 18 µg/mL).

As for `O=C(NC1CC1)c1cn2c(n1)-c1ccccc1N(C(=O)c1ccc(NC(=O)c3cccnc3N3CCCC3)cc1)CC2`, the figures for the EC50 in data set [1], in data set [2] and in data set [4] were 50000 nM, 22 µM and 50 µM, respectively. The CC50 in data set [6] was above 50 µM. This compound came in with a solubility in data set [5] of 121 µM (≈ 68 µg/mL).

Take `O=C(NC1CC1)c1cc2c(s1)-c1ccccc1N(C(=O)c1ccc(NC(=O)c3cccnc3N3CCOCC3)cc1)CC2`: the results for the EC50 in data set [1], in data set [2] and in data set [4] were 230 nM, 0.63 µM and 17 µM, respectively. Besides, the CC50 in data set [3] was above 50 µM. The same compound yielded a solubility in data set [5] of 36 µM (≈ 21.4 µg/mL).

For the compound `O=C(NC1CC1)c1cc2c(s1)-c1ccccc1N(C(=O)c1ccc(NC(=O)c3cccnc3N3CCN(CCO)CC3)cc1)CC2`, the values for the EC50 in data set [1], in data set [2] and in data set [4] were 8000 nM, 13 µM and above 50 µM, respectively. This compound also had a CC50 in data set [3] above 50 µM. In addition, the solubility in data set [5] came out at 40 µM (≈ 25.5 µg/mL).

For the compound `O=C(NC1CC1)c1cc2c(s1)-c1ccccc1N(C(=O)c1ccc(NC(=O)c3cccnc3N3CC[S+]([O-])CC3)cc1)CC2`, the EC50 was 9600 nM in data set [1], 12 µM in data set [2] and above 50 µM in data set [4]. The compound further yielded a CC50 in data set [3] above 50 µM. This compound also had a solubility in data set [5] of 26 µM (≈ 16.3 µg/mL).

As for `O=C(NC1CC1)c1cc2c(s1)-c1ccccc1N(C(=O)c1ccc(NC(=O)c3cccnc3N3CCS(=O)(=O)CC3)cc1)CC2`, the EC50 in data set [1] is 2200 nM; in data set [2], 3.6 µM; in data set [4], above 50 µM. The same compound had a CC50 in data set [3] above 50 µM. This compound also gave a solubility in data set [5] of 4 µM (≈ 2.57 µg/mL).

As to `CN(C)CC1(O)CN(c2ncccc2C(=O)Nc2ccc(C(=O)N3CCc4cc(C(=O)NC5CC5)sc4-c4ccccc43)cc2)C1`, the EC50 in data set [1] was above 50000 nM; in data set [2] it was above 50 µM; in data set [4] it was above 50 µM. The compound also came in with a CC50 in data set [3] above 50 µM. The same compound came in with a solubility in data set [5] above 100 µM.

Turning to `O=C(NC1CC1)c1cc2c(s1)-c1ccccc1N(C(=O)c1ccc(NC(=O)c3cccnc3N3CCC4(CC3)COC4)cc1)CC2`, the EC50 is 10 nM in data set [1], 0.01 µM in data set [2] and 1 µM in data set [4]. Besides, in data set [3], the CC50 is above 50 µM. The amount in solution in data set [5] (solubility) came to 2 µM (≈ 1.27 µg/mL). Further, in data set [7], the half-life was below 1 min.

`CN1CC2(CCN(c3ncccc3C(=O)Nc3ccc(C(=O)N4CCc5cc(C(=O)NC6CC6)sc5-c5ccccc54)cc3)CC2)C1`: the EC50 in data set [1] came to 34000 nM; in data set [2] it was 8.5 µM; in data set [4], 17 µM. In data set [3], the CC50 was determined as 34 µM. Moreover, the concentration in solution in data set [5] (solubility) came to 55 µM (≈ 35.6 µg/mL).

`CC(=O)N1CC2(CCN(c3ncccc3C(=O)Nc3ccc(C(=O)N4CCc5cc(C(=O)NC6CC6)sc5-c5ccccc54)cc3)CC2)C1`: the EC50 in data set [1] amounted to 5300 nM; in data set [2], 9 µM; in data set [4], 39 µM. Also, the CC50 in data set [3] was 34 µM. Moreover, the concentration in solution in data set [5] (solubility) was 4 µM (≈ 2.7 µg/mL).

With `O=C(NC1CC1)c1cc2c(s1)-c1ccccc1N(C(=O)c1ccc(NC(=O)c3cccnc3N3CCCC3)cc1)CC2`, the EC50 in data set [1] is 150 nM; in data set [2], 0.31 µM; in data set [4] it was above 50 µM. The cytotoxic concentration (CC50) in data set [6] and in data set [3] was above 50 µM in each case. Besides, the solubility in data set [5] is below 1 µM.

On to `O=C(NC1CC1)c1cc2c(s1)-c1ccccc1N(C(=O)c1ccc(NC(=O)c3cccnc3N3CCCC3)cn1)CC2`, for which the EC50 in data set [1] was 2400 nM; in data set [2] it was 3.7 µM; in data set [4], above 50 µM. Besides, in data set [6], the CC50 is above 50 µM. Moreover, the concentration in solution in data set [5] (solubility) came to 3 µM (≈ 1.74 µg/mL).
